Data published in publication PMC6151695, “Novel Selective Estrogen Receptor Ligand Conjugates Incorporating Endoxifen-Combretastatin and Cyclofenil-Combretastatin Hybrid Scaffolds: Synthesis and Biochemical Evaluation” (Molecules : A Journal of Synthetic Chemistry and Natural …, 2017).
Marks after values point to notes of the source that are not given here.

Key:
IGROV1 = test: NCI60 in vitro screen, Ovarian cancer; assay type: cell-based, human
CCRF-CEM = test: NCI60 in vitro screen, Leukemia; assay type: cell-based, human
NCI/ADR-RES = test: NCI60 in vitro screen, Ovarian cancer; assay type: cell-based, human
EKVX = test: NCI60 in vitro screen, Non-Small Cell Lung Cancer; assay type: cell-based, human
UACC-257 = test: NCI60 in vitro screen, Melanoma; assay type: cell-based, human
SK-MEL-5 = test: NCI60 in vitro screen, Melanoma; assay type: cell-based, human
MDA-MB-231/ATCC = test: NCI60 in vitro screen, Breast cancer; assay type: cell-based, human
SW-620 = test: NCI60 in vitro screen, Colon Cancer; assay type: cell-based, human
NCI-H460 = test: NCI60 in vitro screen, Non-Small Cell Lung Cancer; assay type: cell-based, human
CAKI-1 = test: NCI60 in vitro screen, Renal cancer; assay type: cell-based, human
MOLT-4 = test: NCI60 in vitro screen, Leukemia; assay type: cell-based, human
HOP-92 = test: NCI60 in vitro screen, Non-Small Cell Lung Cancer; assay type: cell-based, human
SN12C = test: NCI60 in vitro screen, Renal cancer; assay type: cell-based, human
in vitro = settings: human
COLO 205 = test: NCI60 in vitro screen, Colon Cancer; assay type: cell-based, human
60 cancer cell lines = test: NCI 60 cell line screen, whole panel; assay type: cell-based, human
SF-268 = test: NCI60 in vitro screen, CNS Cancer; assay type: cell-based, human
U251 = test: NCI60 in vitro screen, CNS Cancer; assay type: cell-based, human
RPMI-8226 = test: NCI60 in vitro screen, Leukemia; assay type: cell-based, human
SNB-75 = test: NCI60 in vitro screen, CNS Cancer; assay type: cell-based, human
SF539 = test: NCI60 in vitro screen, CNS Cancer; assay type: cell-based, human
NCI-H552 = test: NCI60 in vitro screen, Non-Small Cell Lung Cancer; assay type: cell-based, human
MCF-7 = test: cells; settings: Homo sapiens
BT-549 = test: NCI60 in vitro screen, Breast cancer; assay type: cell-based, human
MDA-MB-435 = test: NCI60 in vitro screen, Melanoma; assay type: cell-based, human
SK-OV-3 = test: NCI60 in vitro screen, Ovarian cancer; assay type: cell-based, human
DU-145 = test: NCI60 in vitro screen, Prostate cancer; assay type: cell-based, human
NCI-H332M = test: NCI60 in vitro screen, Non-Small Cell Lung Cancer; assay type: cell-based, human
OVCAR-3 = test: NCI60 in vitro screen, Ovarian cancer; assay type: cell-based, human
OVCAR-5 = test: NCI60 in vitro screen, Ovarian cancer; assay type: cell-based, human
HCT-116 = test: NCI60 in vitro screen, Colon Cancer; assay type: cell-based, human
MCF-7 cells = settings: human
K-562 = test: NCI60 in vitro screen, Leukemia; assay type: cell-based, human
UACC-62 = test: NCI60 in vitro screen, Melanoma; assay type: cell-based, human
A498 = test: NCI60 in vitro screen, Renal cancer; assay type: cell-based, human
OVCAR-8 = test: NCI60 in vitro screen, Ovarian cancer; assay type: cell-based, human
OVCAR-4 = test: NCI60 in vitro screen, Ovarian cancer; assay type: cell-based, human

For `CC/C(=C(\c1ccccc1)c1ccc(OCCN(C)C(=O)CCC(=O)Oc2cc(/C=C\c3cc(OC)c(OC)c(OC)c3)ccc2OC)cc1)c1ccccc1` (mixture of isomers) [Compound 16a, N-{2-[4-((Z)-1,2-Diphenylbut-1-enyl)phenoxy]ethyl}-N-methylsuccinamic acid 2-methoxy-5-[(Z)-2-(3,4,5-trimethoxyphenyl)vinyl]phenyl ester], the GI50 (IGROV1; Homo sapiens, IGROV-1, IGROV1) was 47.3 nM, the “Growth % (10^−5 M)” value (IGROV1; IGROV1, 10 μM) was −26.34 ^e % and the “Growth % (10^−5 M)” value (CCRF-CEM; 10 μM) was 20.38%. For the same molecule, the GI50 (CCRF-CEM; Homo sapiens) was 39.4 nM, the “Growth % (10^−5 M)” value (NCI/ADR-RES; 10 μM) was −41.32 ^e % and the GI50 (NCI/ADR-RES; Homo sapiens) was 11.1 nM. The “Growth % (10^−5 M)” value (EKVX; 10 μM) was 22.72%, the GI50 (EKVX; Homo sapiens) was 56.9 nM and the GI50 (UACC-257; Homo sapiens, UACC-257) was > 10000 nM. For the same molecule, the “Growth % (10^−5 M)” value (UACC-257; UACC-257, 10 μM) was 48.73%, the GI50 (SK-MEL-5; Homo sapiens, SK-MEL-5) was 20.1 nM and the “Growth % (10^−5 M)” value (SK-MEL-5; SK-MEL-5, 10 μM) was −34.34 ^e %. For the same molecule, the “Growth % (10^−5 M)” value (MDA-MB-231/ATCC; 10 μM) was 23.19%, the GI50 (MDA-MB-231/ATCC; Homo sapiens) was 28.6 nM and the GI50 (SW-620; Homo sapiens, SW-620) was < 10 nM. For the same molecule, the “Growth % (10^−5 M)” value (SW-620; SW-620, 10 μM) was 28.17%, the GI50 (NCI-H460; Homo sapiens, NCI-H460) was 29.9 nM and the “Growth % (10^−5 M)” value (NCI-H460; NCI-H460, 10 μM) was −6.77 ^e %. For the same molecule, the “Growth % (10^−5 M)” value (CAKI-1; CAKI-1, 10 μM) was 23.4%, the GI50 (CAKI-1; Homo sapiens, CAKI-1) was 30.7 nM and the GI50 (MOLT-4; Homo sapiens, MOLT-4) was 39.8 nM. The “Growth % (10^−5 M)” value (MOLT-4; MOLT-4, 10 μM) was 36.2%, the “Growth % (10^−5 M)” value (HOP-92; HOP-92, 10 μM) was 58.55% and the GI50 (HOP-92; Homo sapiens, HOP-92) was < 10 nM. The “Growth % (10^−5 M)” value (SN12C; 10 μM) was 31.84%, the GI50 (SN12C; Homo sapiens) was 57.6 nM and the CC50 (in vitro) was > 100000 nM. The “Growth % (10^−5 M)” value (COLO 205; COLO 205, 10 μM) was −55 ^e %, the GI50 (COLO 205; Homo sapiens, COLO 205) was 378 nM and the IC50 (60 cancer cell lines; Homo sapiens, 60 cell, read-out: GI50 (IC50) values for most of the 60 cancer cell lines) was 10 to 72 nM. For the same molecule, the GI50 (60 cancer cell lines; Homo sapiens, 60 cell, NCI60 five-dose, read-out: MG-MID (μM), mean of GI50 values over all cell lines) was 1.62 µM, the inhibition at 10 µM (60 cancer cell lines; Homo sapiens, 60 cell, one-dose, 10 μM, read-out: growth inhibition in a further 10 cell lines) was 80 to 89% and the “MG% (10^−5 M), Mean Growth % over all cell lines” value (60 cancer cell lines; NCI60 one-dose, 10 μM) was 14.74%. The GI50 (SF-268; Homo sapiens, SF-268) was 25.3 nM, the “Growth % (10^−5 M)” value (SF-268; SF-268, 10 μM) was 18.51% and the GI50 (U251; Homo sapiens, U-251, U251) was 31.6 nM. For the same molecule, the inhibition at 10 µM (U251; Homo sapiens, U-251, U251, one-dose, 10 μM, read-out: growth inhibition) was 90%, the “Growth % (10^−5 M)” value (U251; U251, 10 μM) was 10.13% and the GI50 (RPMI-8226; Homo sapiens, RPMI-8226) was 27.1 nM. The “Growth % (10^−5 M)” value (RPMI-8226; RPMI-8226, 10 μM) was −18.51 ^e %, the GI50 (SNB-75; Homo sapiens, SNB-75) was 16.6 nM and the “Growth % (10^−5 M)” value (SNB-75; SNB-75, 10 μM) was 39.46%. For the same molecule, the GI50 (SF539; Homo sapiens, SF-539, SF539) was 21.3 nM, the “Growth % (10^−5 M)” value (SF539; SF539, 10 μM) was −7.31 ^e % and the GI50 (NCI-H552; Homo sapiens, NCI-H552) was 19.7 nM. The “Growth % (10^−5 M)” value (NCI-H552; NCI-H552, 10 μM) was −30.85 ^e %, the GI50 (MCF-7; MCF7) was 34.5 nM and the IC50 (MCF-7; MCF7, read-out: GI50 (IC50)) was 36 nM. The inhibition at 10 µM (MCF-7; MCF7, read-out: growth inhibition) was 90%, the “Growth % (10^−5 M)” value (BT-549; BT-549, 10 μM) was 7.07% and the GI50 (BT-549; Homo sapiens, BT-549) was 43.8 nM. The inhibition at 10 µM (BT-549; Homo sapiens, BT-549, one-dose, 10 μM, read-out: growth inhibition) was 94%, the GI50 (MDA-MB-435; Homo sapiens, MDA-MB-435) was < 10 nM and the “Growth % (10^−5 M)” value (MDA-MB-435; MDA-MB-435, 10 μM) was −16.61 ^e %. The GI50 (SK-OV-3; Homo sapiens, SK-OV-3) was 36.8 nM, the “Growth % (10^−5 M)” value (SK-OV-3; SK-OV-3, 10 μM) was 17.23% and the “Growth % (10^−5 M)” value (DU-145; DU-145, 10 μM) was −36.33 ^e %. The GI50 (DU-145; Homo sapiens, DU-145) was 12.5 nM, the “Growth % (10^−5 M)” value (NCI-H332M; 10 μM) was 57.18% and the GI50 (NCI-H332M; Homo sapiens) was 67.2 nM. The GI50 (OVCAR-3; Homo sapiens, OVCAR-3) was < 10 nM, the “Growth % (10^−5 M)” value (OVCAR-3; OVCAR-3, 10 μM) was −57.79 ^e % and the GI50 (OVCAR-5; Homo sapiens, OVCAR-5) was 89.4 nM. For the same molecule, the “Growth % (10^−5 M)” value (OVCAR-5; OVCAR-5, 10 μM) was 34.65%, the “Growth % (10^−5 M)” value (HCT-116; HCT-116, 10 μM) was 1.61% and the GI50 (HCT-116; Homo sapiens, HCT-116) was 15.6 nM. The inhibition at 10 µM (HCT-116; Homo sapiens, HCT-116, one-dose, 10 μM, read-out: growth inhibition) was 98%, the “cytotoxicity (LDH assay)” value (MCF-7 cells) was 13.2% and the GI50 (K-562; Homo sapiens, K562, K-562) was < 10 nM. The “Growth % (10^−5 M)” value (K-562; K-562, 10 μM) was 41.7%, the GI50 (UACC-62; Homo sapiens, UACC-62) was 18.1 nM and the “Growth % (10^−5 M)” value (UACC-62; UACC-62, 10 μM) was 25.13%. The “Growth % (10^−5 M)” value (A498; A498, 10 μM) was 29.47%, the GI50 (A498; Homo sapiens, A498) was 58.1 nM and the GI50 (OVCAR-8; Homo sapiens, OVCAR-8) was 49 nM. The “Growth % (10^−5 M)” value (OVCAR-8; OVCAR-8, 10 μM) was 12.79%, the GI50 (OVCAR-4; Homo sapiens, OVCAR-4) was 62.8 nM and the “Growth % (10^−5 M)” value (OVCAR-4; OVCAR-4, 10 μM) was 30.96%.
